# Test results reported in paper PMC8344263, “Tetrahydroquinazole-based secondary sulphonamides as carbonic anhydrase inhibitors: synthesis, biological evaluation against isoforms I, II, IV, and IX, and computational studies” (Journal of Enzyme Inhibition and Medicinal Chemistry, 2021).
# Values joined by “and” are separate entries in the source; they are usually repeats but may differ in a detail not shown here. Equal values may be shown once.
# What was measured:
# hCA I = hCA I (Homo sapiens, UniProt P00915); assay: stopped-flow CO2 hydrase assay, hCA I; settings: for Ki ratio CA I/CA IX: selectivity for hCA IX over hCA I
# Method: (§1) An Applied Photophysics stopped-flow instrument was used for assaying the CA catalysed CO2 hydration activity[28]. […] The uncatalysed rates were determined in the same manner and subtracted from the total observed rates. Stock solutions of inhibitors (10 mM) were prepared in distilled-deionised water with 10% of DMSO and dilutions up to 0.01 µM were done thereafter with the assay buffer. The inhibitor and enzyme solutions were preincubated together for 15 min (standard assay at room temperature) prior to assay, to allow for the formation of the E-I complex. The inhibition constants were obtained by non-linear least-squares methods using PRISM 3 and the Cheng–Prusoff equation and represent the mean from at least three different determinations.
# hCA IX = hCA IX (Homo sapiens, UniProt Q16790); assay: stopped-flow CO2 hydrase assay, hCA IX; settings: mean from three assays, errors ±5–10%
# Method: as §1
# hCA II = hCA II (Homo sapiens, UniProt P00918); assay: stopped-flow CO2 hydrase assay, hCA II; settings: for Ki ratio CA II/CA IX: selectivity for hCA IX over hCA II
# Method: as §1
# hCA IV = hCA IV (Homo sapiens, UniProt P22748); assay: stopped-flow CO2 hydrase assay, hCA IV; settings: for Ki ratio CA IV/CA IX: selectivity for hCA IX over hCA IV
# Sequence of hCA IV (P22748 19-312): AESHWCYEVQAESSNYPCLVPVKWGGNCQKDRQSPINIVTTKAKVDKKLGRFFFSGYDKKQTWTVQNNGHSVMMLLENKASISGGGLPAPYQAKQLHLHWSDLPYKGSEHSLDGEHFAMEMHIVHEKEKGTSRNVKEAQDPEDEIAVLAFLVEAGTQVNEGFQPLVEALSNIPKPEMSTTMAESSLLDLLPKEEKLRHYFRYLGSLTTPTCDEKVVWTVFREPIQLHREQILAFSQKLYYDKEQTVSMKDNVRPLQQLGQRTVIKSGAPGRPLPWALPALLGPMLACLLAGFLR
# Method: as §1
# Sequence of hCA I (P00915 whole entry): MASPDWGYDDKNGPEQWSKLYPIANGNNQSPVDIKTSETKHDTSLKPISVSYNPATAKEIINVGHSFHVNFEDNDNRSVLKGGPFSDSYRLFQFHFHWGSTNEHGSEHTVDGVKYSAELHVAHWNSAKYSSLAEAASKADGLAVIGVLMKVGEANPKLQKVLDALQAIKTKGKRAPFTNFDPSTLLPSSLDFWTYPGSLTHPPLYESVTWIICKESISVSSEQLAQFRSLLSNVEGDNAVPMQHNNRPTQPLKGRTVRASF
compound,measurement,setting,value
"O=C1CCCc2nc(Nc3ccc(S(=O)(=O)Nc4ccc([N+](=O)[O-])cc4)cc3)ncc21 [Compound 3, N-(4-nitrophenyl)-4-((5-oxo-5,6,7,8-tetrahydroquinazolin-2-yl)amino)benzenesulfonamide]",Ki,hCA I,> 100 µM
same,melting point,,264 to 266 °C
same,Ki,hCA IX,0.42 µM
same,Ki,hCA II,> 100 µM
same,Ki,hCA IV,> 100 µM
"Cc1ccc(NS(=O)(=O)c2ccc(Nc3ncc4c(n3)CC(C)(C)CC4=O)cc2)cc1 [Compound 12, 4-((7,7-Dimethyl-5-oxo-5,6,7,8-tetrahydroquinazolin-2-yl)amino)-N-(p-tolyl)benzenesulfonamide]",Ki,hCA I,84.9 µM
same,melting point,,246 to 248 °C
same,Ki,hCA IX,19.3 µM
same,Ki,hCA II,22.4 µM
same,Ki,hCA IV,62.1 µM
"CC1(C)CC(=O)c2cnc(Nc3ccc(S(=O)(=O)Nc4ccc([N+](=O)[O-])cc4)cc3)nc2C1 [Compound 11, 4-((7,7-Dimethyl-5-oxo-5,6,7,8-tetrahydroquinazolin-2-yl)amino)-N-(4-nitrophenyl)benzenesulfonamide]",Ki,hCA I,62 µM
same,melting point,,264 to 266 °C
same,Ki,hCA IX,> 100 µM
same,Ki,hCA II,6.9 µM
same,Ki,hCA IV,> 100 µM
"O=C1CC(c2ccccc2)Cc2nc(Nc3ccc(S(=O)(=O)Nc4ccccc4)cc3)ncc21 (centres unmarked) [Compound 5, 4-((5-Oxo-7-phenyl-5,6,7,8-tetrahydroquinazolin-2-yl)amino)-N-phenylbenzenesulfonamide]",Ki,hCA I,> 100 µM
same,Ki ratio CA I/CA IX,hCA I,> 222
same,melting point,,111 to 113 °C
same,Ki,hCA IX,0.45 µM
same,Ki,hCA II,> 100 µM
same,Ki,hCA IV,> 100 µM
same,Ki ratio CA IV/CA IX,hCA IV,> 222
"CC1(C)CC(=O)c2cnc(Nc3ccc(S(N)(=O)=O)cc3)nc2C1 [Compound 16c, 4-((5-oxo-7,7-dimethyl-5,6,7,8-tetrahydroquinazolin-2-yl)amino)benzenesulfonamide]",melting point,,258 to 260 °C
"COc1ccc(NS(=O)(=O)c2ccc(Nc3ncc4c(n3)CC(C)(C)CC4=O)cc2)cc1 [Compound 10, 4-((7,7-Dimethyl-5-oxo-5,6,7,8-tetrahydroquinazolin-2-yl)amino)-N-(4-methoxyphenyl)benzenesulfonamide]",Ki,hCA I,24.7 µM
same,melting point,,210 to 212 °C
same,Ki,hCA IX,48.1 µM
same,Ki,hCA II,5.1 µM
same,Ki,hCA IV,78.1 µM
"NS(=O)(=O)c1ccc(Nc2ncc3c(n2)CC(c2ccccc2)CC3=O)cc1 (centres unmarked) [Compound 16b, 4-((5-oxo-7-phenyl-5,6,7,8-tetrahydroquinazolin-2-yl)amino)benzenesulfonamide]",melting point,,214 to 215 °C
"NS(=O)(=O)c1ccc(Nc2ncc3c(n2)CCCC3=O)cc1 [Compound 16a, 4-((5-oxo-5,6,7,8-tetrahydroquinazolin-2-yl)amino)benzenesulfonamide]",melting point,,294 to 296 °C
"O=C1CCCc2nc(Nc3ccc(S(=O)(=O)Nc4ccccc4)cc3)ncc21 [Compound 1, 4-((5-Oxo-5,6,7,8-tetrahydroquinazolin-2-yl)amino)-N-phenylbenzenesulfonamide]",Ki,hCA I,89.1 µM
same,melting point,,281 to 283 °C
same,Ki,hCA IX,0.48 µM
same,Ki,hCA II,41.2 µM
same,Ki,hCA IV,> 100 µM
"O=C1CC(c2ccccc2)Cc2nc(Nc3ccc(S(=O)(=O)Nc4ccc([N+](=O)[O-])cc4)cc3)ncc21 (centres unmarked) [Compound 7, N-(4-nitrophenyl)-4-((5-oxo-7-phenyl-5,6,7,8-tetrahydroquinazolin-2-yl)amino)benzenesulfonamide]",Ki,hCA I,> 100 µM
same,Ki ratio CA I/CA IX,hCA I,> 75.2
same,melting point,,118 to 120 °C
same,Ki,hCA IX,1.33 µM
same,Ki,hCA II,67.5 µM
same,Ki ratio CA II/CA IX,hCA II,50.7
same,Ki,hCA IV,> 100 µM
same,Ki ratio CA IV/CA IX,hCA IV,> 75.2
"COc1ccc(NS(=O)(=O)c2ccc(Nc3ncc4c(n3)CC(c3ccccc3)CC4=O)cc2)cc1 (centres unmarked) [Compound 6, N-(4-methoxyphenyl)-4-((5-oxo-7-phenyl-5,6,7,8-tetrahydroquinazolin-2-yl)amino)benzenesulfonamide]",Ki,hCA I,34 µM
same,Ki ratio CA I/CA IX,hCA I,19.6
same,melting point,,103 to 105 °C
same,Ki,hCA IX,1.73 µM
same,Ki,hCA II,11.5 µM
same,Ki ratio CA II/CA IX,hCA II,6.6
same,Ki,hCA IV,> 100 µM
same,Ki ratio CA IV/CA IX,hCA IV,> 57.8
"CC1(C)CC(=O)c2cnc(Nc3ccc(S(=O)(=O)Nc4ccccc4)cc3)nc2C1 [Compound 9, 4-((7,7-Dimethyl-5-oxo-5,6,7,8-tetrahydroquinazolin-2-yl)amino)-N-phenylbenzenesulfonamide]",Ki,hCA I,70.5 µM
same,melting point,,215 to 217 °C
same,Ki,hCA IX,47.3 µM
same,Ki,hCA II,7.4 µM
same,Ki,hCA IV,91.1 µM
"Cc1ccc(NS(=O)(=O)c2ccc(Nc3ncc4c(n3)CC(c3ccccc3)CC4=O)cc2)cc1 (centres unmarked) [Compound 8, 4-((5-Oxo-7-phenyl-5,6,7,8-tetrahydroquinazolin-2-yl)amino)-N-(4-tolyl)benzenesulfonamide]",Ki,hCA I,46.1 µM
same,melting point,,83 to 85 °C
same,Ki,hCA IX,15.7 µM
same,Ki,hCA II,13 µM
same,Ki,hCA IV,> 100 µM
"COc1ccc(NS(=O)(=O)c2ccc(Nc3ncc4c(n3)CCCC4=O)cc2)cc1 [Compound 2, N-(4-methoxyphenyl)-4-((5-oxo-5,6,7,8-tetrahydroquinazolin-2-yl)amino)benzenesulfonamide]",Ki,hCA I,> 100 µM
same,melting point,,233 to 235 °C
same,Ki,hCA IX,0.46 µM
same,Ki,hCA II,50.3 µM
same,Ki,hCA IV,> 100 µM
"Cc1ccc(NS(=O)(=O)c2ccc(Nc3ncc4c(n3)CCCC4=O)cc2)cc1 [Compound 4, 4-((5-Oxo-5,6,7,8-tetrahydroquinazolin-2-yl)amino)-N-(4-tolyl)benzenesulfonamide]",Ki,hCA I,> 100 µM
same,Ki ratio CA I/CA IX,hCA I,> 96 and >100 [CA I/CA IX]^b>96
same,melting point,,272 to 274 °C
same,Ki,hCA IX,1.04 µM
same,Ki,hCA II,> 100 µM
same,Ki ratio CA II/CA IX,hCA II,> 96 and >100 [CA II/CA IX]^b>96
same,Ki,hCA IV,> 100 µM
same,Ki ratio CA IV/CA IX,hCA IV,> 96 and >100 [CA IV/CA IX]^b>96
